According to publication PMC11446282:
No end group written: not given here.

Columns and labels:
B55α interactors = assay: MS analysis of B55α WT, V228A, I284A, S287A and D340A immunopurifications; format: binding, human; settings: log2 ratio of interactor abundance, 4 replicates each, normalised to bait B55α; for log2_ratio_D340_WT: B55α D340A vs WT immunopurification; for log2_ratio I284_WT: B55α I284A vs WT immunopurification; for log2_ratio S287_WT: B55α S287A vs WT immunopurification; for log2_ratio V228_WT: B55α V228A vs WT immunopurification
Experimental: Standard cloning techniques were used throughout. Point mutations were introduced by whole plasmid polymerase chain reaction (PCR). All constructs were fully sequenced. Synthetic DNA was purchased from GeneArt, Life Technologies and cloned into pcDNA5/FRT/TO (Invitrogen) expression vector containing YFP, resulting in the indicated YFP fusion proteins. These constructs were transiently transfected into HeLa cells 24 hours before harvesting cells. Cells were lysed in lysis buffer [50 mM tris-HCl (pH 7.5), 50 mM NaCl, 1 mM EDTA, 1 mM […], and 0.1% NP-40]. Complexes were immunoprecipitated at 4°C in lysis buffer with green fluorescent protein (GFP)–Trap (ChromoTek) and washed in lysis buffer. Precipitated protein complexes were washed three times in lysis buffer, eluted in 2× SDS sample buffer, and subjected to Western blotting or MS as indicated.
Pull-downs were analyzed on a Q-Exactive Plus quadrupole or Fusion Orbitrap Lumos mass spectrometer (Thermo Fisher Scientific) equipped with Easy-nLC 1000 or […] (Thermo Fisher Scientific) and nanospray source (Thermo Fisher Scientific).
Static modifications included carbamidomethylcysteine, and variable modifications included oxidized methionine and STY phosphorylation. Searches were filtered using orthogonal measures including mass measurement accuracy (±3 parts per million), Xcorr for charges from +2 to +4, and dCn targeting a <1% false discovery rate at the peptide level. Quantification of LC-MS/MS spectra was performed using MassChroQ ([57]) and the iBAQ method ([58]). All data were analyzed using R 4.3.0. Missing values were imputed from a normal distribution. […] In each dataset, the abundance of the protein of interest was normalized to be equal across all samples. Statistical analyses were done using a two-tailed Student’s t test.

PP2A-B55α = assay: Affinity purification of YFP-tagged designed peptides from HeLa cells, binding to PP2A-B55α by Western blot; design: species or system human; settings: experimental binding of YFP-tagged designed peptide to PP2A-B55α
B55α = molecular target: T1, B55α (Homo sapiens, UniProt P63151); assay: Surface plasmon resonance with captured Twin-Strep B55α; format: binding; settings: same SPR approach as for B55i; fig. S15
T1 construct: His; made in house; host or cells: HEK293 cells
T1 sequence (P63151 1-447): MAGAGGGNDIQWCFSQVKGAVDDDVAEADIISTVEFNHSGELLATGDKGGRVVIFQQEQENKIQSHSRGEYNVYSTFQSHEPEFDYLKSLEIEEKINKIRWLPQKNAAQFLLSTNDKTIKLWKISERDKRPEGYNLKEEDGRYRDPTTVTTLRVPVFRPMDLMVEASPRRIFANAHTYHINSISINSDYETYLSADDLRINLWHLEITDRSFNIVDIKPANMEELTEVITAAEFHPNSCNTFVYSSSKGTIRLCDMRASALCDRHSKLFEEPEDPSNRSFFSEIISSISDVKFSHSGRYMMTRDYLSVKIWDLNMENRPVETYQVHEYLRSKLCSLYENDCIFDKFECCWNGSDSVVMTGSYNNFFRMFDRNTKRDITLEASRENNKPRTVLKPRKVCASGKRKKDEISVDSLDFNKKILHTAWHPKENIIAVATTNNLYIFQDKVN

| Substance | log2_ratio_D340_WT (B55α interactors) | log2_ratio I284_WT (B55α interactors) | log2_ratio S287_WT (B55α interactors) | log2_ratio V228_WT (B55α interactors) | binding to PP2A-B55α (Western blot) (PP2A-B55α) | binding to B55α, affinity range (B55α) |
| --- | --- | --- | --- | --- | --- | --- |
| BAG3_HUMAN | 0.51 | 0.79 | 1.17 | 0.37 |  |  |
| DNJA2_HUMAN | 1.00 | 0.64 | 1.02 | 0.87 |  |  |
| DNJB6_HUMAN | -0.39 | 0.42 | 1.10 | 2.13 |  |  |
| EEKLRILEKMEEKLKDKSLSLEKKVLLKNAKKSL |  |  |  |  | 28 |  |
| EKILEIAKKKIEELKKKPGGLDLEKYLLYKKLIEKV |  |  |  |  | 15 |  |
| EKRKKLKEKALEKLKDPNRDLEEKVLLRNWLKSL |  |  |  |  | 14 |  |
| ELIKRLYEKAKEKLKDESRSLEKKVLLRNWIKSL |  |  |  |  | 62.5 |  |
| ELPLEEVERLLKLAEEKLKDESLSLTKKVLLRNL |  |  |  |  | 55.5 |  |
| HAX1_HUMAN | -0.10 | -0.26 | 0.0269 | -0.50 |  |  |
| HS90A_HUMAN | -0.17 | -0.24 | 0.22 | -0.28 |  |  |
| HS90B_HUMAN | -0.13 | -0.16 | 0.29 | -0.12 |  |  |
| HSPB1_HUMAN | -1.28 | -0.92 | -0.85 | -0.80 |  |  |
| LLELAKKKYEEELKKKEPDLTKLVLLKNVIKKLK |  |  |  |  | 42 |  |
| MQPINKARALYRISHLKLSNSKREQDEQVLLRLHMIAFLNIVNHT |  |  |  |  | 0 |  |
| PVKLQLLKKAKEKLADENLSLEKKVLLKNLIKSW |  |  |  |  | 68 |  |
| QIIQRSFSSPENFQRQAVMNSALRQMSYGGW [RBM7 129–158 WT] |  |  |  |  |  | low micromolar |
| QRLMTLSVWKMYHSRMQRGGEDAWLSLMLSLAMRLG |  |  |  |  | 0 |  |
| RLPINLERALYRLSHLKLSNSKRELYEQVALKLAMLGFLNLVNHT |  |  |  |  | 11.5 |  |
| SLIWQSNMDKALVKLQLCHMLEQPDLTKSVMILAGVLAAQEFM |  |  |  |  | 0 |  |
